# Test results: article PMC3031881, “Amyloid precursor protein selective gamma-secretase inhibitors for treatment of Alzheimer's disease” (Alzheimer's Research & Therapy, 2010)
# Marks after values point to notes of the source that are not given here.
# Columns and labels:
# [1] = system: APP metabolites in HEK293 cells stably expressing APPsw; test: APP metabolites by Western blot in inhibitor treated cells; conditions: approximately 1 X and 10 X ED50, overnight, cell extracts
# [2] = target: T1, gamma-secretase complex (from CHO S1 cells) (Homo sapiens, UniProt P49768); test: Competitive displacement of biotinylated active site isostere (PS1/Nicastrin Western blot); type: binding
# T1 construct: expressed in transfected cells; host or cells: CHO S1 cells
# [3] = system: Notch signaling in SNC cells (rat NotchΔE, CBF-Luciferase); test: SNC dual cell assay, Notch signaling luciferase reporter; conditions: for EC50: Rattus norvegicus, read-out: SNC Notch Signaling EC50; for APP selectivity (cellular, SNC assay): text of Discussion
# [4] = system: Aβ production in SNC cells (CHO APPSw); test: SNC dual cell assay, secreted Aβ1-x ELISA; conditions: Cricetulus griseus; for EC50: read-out: SNC Aβ EC50; for IC50: read-out: IC50 for inhibition of Aβ production in the SNC assay
# [5] = system: duodenum and ileum of FVB mice; test: Seven-day b.i.d. repeat dose study, small intestine histopathology (goblet cell hyperplasia); conditions: for goblet cells in ileum sections / goblet cell hyperplasia: seven days b.i.d.; for goblet cells in ileum sections: H&E and PAS stained sections; for goblet cell hyperplasia: LY411575 5 mg/kg duodenum and ileum, ELN475516 any dose, duodenum
# brain Aβx-40 in FVB mice [6] = test: Seven-day b.i.d. repeat dose study, brain Aβx-40; conditions: seven days; for reduction of brain Aβ: three hours post last dose
# [7] = system: thymic Hes-1 mRNA (Notch signaling); test: Thymic Hes-1 mRNA after single dose in FVB mice (TaqMan RT-PCR); type: in vivo, mouse; conditions: three hours
# Protocol: (§1) Water and food were available ad libitum. […] Control animals were dosed with vehicle.
# brain Aβx-40 in FVB mice [8] = test: Acute reduction of brain Aβx-40 in wild-type FVB mice; type: in vivo, mouse
# Protocol: as §1
# Statistical significance was determined by ANOVA.
# [9] = system: FVB mice (Math1 mRNA, body and organ weight, neutrophils); conditions: seven days b.i.d.; LY411575 5 mg/kg/dose; ELN475516 up to 1,000 mg/kg/dose
# brain Aβ in PDAPP mice = test: Acute reduction of brain Aβ in PDAPP mice; type: in vivo, mouse; conditions: for reduction of brain Aβ1-x: 3 h
# Protocol: as §1
# Figure 4 Acute reduction of brain Aβ by ELN318463 in PDAPP (a) and FVB mice (b). The mice were dosed orally with vehicle, or ELN318463 at 30 mg/kg or 100 mg/kg and sacrificed 3 h post treatment. Brain Aβ1-x in PDAPP (a), or Aβx-40 in FVB (b) was quantified by ELISA following extraction in guanidine buffer as described in methods. ** denotes P < 0.01, *** denotes P < 0.001 by Mann-Whitney in A, and two-tailed Students t-test in (b). TEXT PRINTED IN THE PICTURE: (A) no label printed: Aβ reduction: 37% (30[mpk]); Aβ reduction: 48% (100[mpk]) | (B) no label printed: Aβ reduction: 18% (30[mpk]); Aβ reduction: 18% (100[mpk])
# [10] = Metabolism (N-glucuronidation); conditions: precluded longer-term studies in mice (or other models)
# [11] = Compound levels in plasma and brain by LC-MS-MS; conditions: for concentration at 3 h: mouse
# PDAPP mouse = system: PDAPP mouse; parameters: method as in earlier work; conditions: three and six months, doses which affected AD pathology; cited from earlier work
# brain Aβ in Tg2576 mice = system: brain Aβ in Tg2576 mice; parameters: method as in PMID 19671883; conditions: cited from earlier work
# [12] = Oral bioavailability in rat; conditions: in vivo, read-out: oral bioavailability F
# [13] = 5 mg/kg/dose b.i.d., 7 days, goblet cell hyperplasia in affected animals
# [14] = 15 mg/kg/dose b.i.d., 7 days, N = 5
# [15] = 30 mg/kg/dose b.i.d., 7 days, N = 5
# [16] = 100 mg/kg/dose b.i.d., 7 days, N = 5
# [17] = 300 mg/kg/dose b.i.d., 7 days, N = 5
# [18] = 600 mg/kg/dose b.i.d., 7 days, N = 5
# [19] = 1,000 mg/kg/dose b.i.d., 7 days, N = 5
# [20] = ileum, among all mice of the ELN475516 treated groups
# [21] = single oral dose 30 mg/kg, three hours post dose
structure (smiles),measurement,setting,value
"CC(C)C[C@H](NC(=O)[C@H](Cc1ccccc1)C[C@@H](O)[C@H](Cc1ccccc1)NC(=O)OC(C)(C)C)C(=O)N[C@@H](Cc1ccccc1)C(N)=O [L-685,458, tert-Butyl (2S,3R,5R)-6-((S)-1-((S)-1-amino-1-oxo-3-phenylpropan-2-ylamino)-4-methyl-1-oxopentan-2-ylamino)-5-benzyl-3-hydroxy-6-oxo-1-phenylhexan-2-ylcarbamate]",effect on α-CTF and β-CTF of APP,[1],stabilize both α-CTF and β-CTF in a dose-dependent manner
same,captured gamma-secretase complex competed,"[2]; co-incubation with 10 μM, 50 nM biotinylated probe, preliminary experiments",> 90%
same,"concentration for 50% displacement of biotinylated active site isostere probe, above IC50 in the gammaAPP assay",[2]; no added substrate,approximately three
same,EC50,[3],184 ± 145 nM
same,EC50,[4],13.2 ± 4.5 nM
"C[C@H](NC(=O)[C@@H](O)c1cc(F)cc(F)c1)C(=O)N[C@@H]1C(=O)N(C)c2ccccc2-c2ccccc21 [LY411575, (S)-2-((S)-2-(3,5-Difluorophenyl)-2-hydroxyacetamido)-N-((S)-5-methyl-6-oxo-6,7-dihydro-5H-dibenzo(b,d)azepin-7-yl)propanamide, reference compound]",Ileum # animals affected,"[5]; 5 mg/kg/dose b.i.d., 7 days, N = 5",5
same,Duodenum # animals affected,"[5]; 5 mg/kg/dose b.i.d., 7 days, N = 5 (tissue lost from one animal)",4*
same,Duodenum Mean severity score,[5]; [13],2
same,Ileum Mean severity score,[5]; [13],3
same,goblet cells in ileum sections,[5],moderate increase in goblet cells
same,goblet cell hyperplasia,[5],readily apparent
same,reduction of brain Aβ,brain Aβx-40 in FVB mice [6]; 5 mg/kg b.i.d. oral,83%
same,reduction of thymic Hes-1 mRNA,[7]; single oral dose 10 mg/kg,60%
same,reduction of brain Aβx-40,"brain Aβx-40 in FVB mice [8]; single oral dose 10 mg/kg, three hours post dose",74%
same,Math1 mRNA levels in duodenum and ileum,[9],robust elevation
same,EC50,[3],1.8 ± 1.35 nM
same,EC50,[4],0.116 ± 0.011 nM
"O=S(=O)(c1ccc(Cl)cc1)N1C2CCCC1c1cn[nH]c1C2 (centres unmarked) [ELN475516, 10-((4-Chlorophenyl)sulfonyl)-4,5,6,7,8,9-hexahydro-1H-4,8-epiminocycloocta(c)pyrazole]",Duodenum # animals affected,[5]; [14],0
same,Ileum # animals affected,[5]; [14],0
same,Duodenum # animals affected,[5]; [15],0
same,Ileum # animals affected,[5]; [15],4
same,Ileum Mean severity score,"[5]; 30 mg/kg/dose b.i.d., 7 days, affected animals",0.5
same,Duodenum # animals affected,[5]; [16],0
same,Ileum # animals affected,[5]; [16],2
same,Ileum Mean severity score,"[5]; 100 mg/kg/dose b.i.d., 7 days, affected animals",1.25
same,Duodenum # animals affected,[5]; [17],0
same,Ileum # animals affected,[5]; [17],0
same,Duodenum # animals affected,[5]; [18],0
same,Ileum # animals affected,[5]; [18],2
same,Ileum Mean severity score,"[5]; 600 mg/kg/dose b.i.d., 7 days, affected animals",0.5
same,Duodenum # animals affected,[5]; [19],0
same,Ileum # animals affected,[5]; [19],1
same,Ileum Mean severity score,"[5]; 1,000 mg/kg/dose b.i.d., 7 days, affected animals",0.5
same,number of mice with a questionable increase in goblet cells,[5]; [20],8
same,number of mice with no increase in goblet cells,[5]; [20],21
same,goblet cells in ileum sections,[5],no apparent dose-related increase
same,goblet cell hyperplasia,[5],not observed
same,reduction of brain Aβ,brain Aβx-40 in FVB mice [6]; 15 mg/kg/dose b.i.d. oral,33%
same,"maximal effect, reduction of brain Aβ",brain Aβx-40 in FVB mice [6]; >100 mg/kg b.i.d. oral,74%
same,reduction of cortical Aβ1-x,"brain Aβ in PDAPP mice; single oral dose 10 mg/kg, three hours",31%
same,reduction of brain Aβ1-x,brain Aβ in PDAPP mice; single oral dose 30 mg/kg,45%
same,thymic Hes-1 mRNA,[7]; single oral dose 300 mg/kg (highest dose tested),statistically significant reduction
same,brain Aβ levels by 24 hours post dose,"brain Aβx-40 in FVB mice [8]; all treatment groups (30, 100, 300 mg/kg)",returning to baseline
same,reduction of brain Aβ,"brain Aβx-40 in FVB mice [8]; single oral dose 30 mg/kg, 10 hours post dose",28%
same,reduction of brain Aβx-40,brain Aβx-40 in FVB mice [8]; [21],40%
same,reduction of brain Aβ,"brain Aβx-40 in FVB mice [8]; single oral dose 100 mg/kg, 10 hours post dose",33%
same,reduction of brain Aβ,"brain Aβx-40 in FVB mice [8]; single oral dose 100 mg/kg, 14 hours post dose",14%
same,reduction of brain Aβ,"brain Aβx-40 in FVB mice [8]; single oral dose 300 mg/kg, 10 hours post dose",56%
same,reduction of brain Aβ,"brain Aβx-40 in FVB mice [8]; single oral dose 300 mg/kg, 14 hours post dose",29%
same,reduction of brain Aβx-40,"brain Aβx-40 in FVB mice [8]; single oral dose 300 mg/kg, three hours post dose",71%
same,time of maximal reduction of brain Aβ post dose,"brain Aβx-40 in FVB mice [8]; single oral dose 30, 100, 300 mg/kg",three
same,Math1 mRNA levels in duodenum and ileum,[9],No effects
same,metabolic liability,[10],Limiting N-glucuronidation
same,EC50,[3],719 ± 225 nM
same,EC50,[4],8.73 ± 3.96 nM
same,terminal plasma compound levels,"[11]; acute single dose study, highest dose tested (300 mg/kg), FVB mice",12.3 µM
same,concentration at 3 h,"[11]; female, FVB, in vivo, 15 mg/kg",187 nM
same,concentration at 3 h,"[11]; female, FVB, in vivo, 1000 mg/kg/dose",12300 nM
O=S(=O)(c1ccc(C(F)(F)F)cc1)N1c2cc(F)c(F)cc2-c2[nH]ncc2[C@H]1C1CC1 [ELND006],tolerability in chronic study,PDAPP mouse,well tolerated
NC(=O)[C@@H](CCC(F)(F)F)N(Cc1ccc(-c2ncon2)cc1F)S(=O)(=O)c1ccc(Cl)cc1 [BMS-708163],"APP selectivity (cellular, SNC assay)",[3],57 X
same,IC50,[4],1.13 nM
O=S(=O)(N[C@H](CO)C(C(F)(F)F)C(F)(F)F)c1ccc(Cl)s1 [GSI-953],reduction of brain Aβx-40,brain Aβx-40 in FVB mice [8]; [21],33%
same,"APP selectivity (cellular, SNC assay)",[3],45 X
same,IC50,[4],8 nM
same,dose producing a similar magnitude effect (33% brain Aβ reduction),brain Aβ in Tg2576 mice,5 mg/kg
"O=C1NCCCC[C@H]1N(Cc1ccc(Br)cc1)S(=O)(=O)c1ccc(Cl)cc1 [ELN318463, N-(4-Bromobenzyl)-4-chloro-N-((3R)-2-oxoazepan-3-yl)benzenesulfonamide]",bioavailability,[12],30%
same,displacement of biotinylated active site probe,[2]; in the absence of substrate,No displacement
same,reduction of Aβx-40,brain Aβ in PDAPP mice; 30 mg/kg oral,20%
same,reduction of Aβx-40,brain Aβ in PDAPP mice; 100 mg/kg oral,25%
same,reduction of brain Aβ1-x,brain Aβ in PDAPP mice; single oral dose 30 mg/kg,37%
same,reduction of brain Aβ1-x,brain Aβ in PDAPP mice; single oral dose 100 mg/kg,48%
same,reduction of brain Aβx-40,brain Aβx-40 in FVB mice [8]; [21],18%
same,reduction of brain Aβx-40,"brain Aβx-40 in FVB mice [8]; single oral dose 100 mg/kg, 3 h post dose",18%
same,EC50,[3],2820 nM
same,Cellular Selectivity (APP/Notch),[3]; ratio of cellular Notch signaling and Aβ EC50,120
same,EC50,[4],23.4 ± 8.6 nM
same,concentration at 3 h,"[11]; PDAPP, brain, po, 30 mg/kg",690 nM
same,concentration at 3 h,"[11]; PDAPP, brain, po, 100 mg/kg",1870 nM
same,concentration at 3 h,"[11]; female, FVB/N, brain, po, 30 mg/kg",754 nM
same,concentration at 3 h,"[11]; female, FVB/N, brain, po, 100 mg/kg",2700 nM
